Experimental data from patent US20250326732A1 (Pretzel Therapeutics, Inc., priority 2021, published 2025).

molecular target: POLRMT (Homo sapiens (Human), UniProt O00411); test: homogeneous TR-FRET assay of mitochondrial transcription (inhibition of POLRMT); assay type: biochemical; conditions: 7.5 nM POLRMT, 15 nM TFB2M, 30 nM TFAM, 0.5 nM DNA template, 500 μM NTPs, 37° C. for 60 minutes
Protocol: The ability of some compounds of the present invention to inhibit POLRMT were determined in a homogeneous TR-FRET Assay using high-throughput screening in a 384-well plate format. […] Detection of the product is facilitated by hybridization of two DNA-oligonucleotide probes to specific and adjacent sequences within the RNA product sequence. Upon annealing of the probes, two fluorophores are coupled directly to an acceptor nucleotide probe (ATTO647, 5′), or introduced via a coupled streptavidin with a biotinylated donor nucleotide probe (Europium cryptate) that is brought into sufficient proximity to serve as a fluorescence-donor-acceptor pair. Thus, a FRET signal at 665 nm is generated upon excitation at 340 nm.
The DNA template is restriction linearized proximal to the promotor 3′-end (pUC-LSP). […] No nucleotide triphosphate mix is added to negative control samples. Microplates with compounds to be tested in the assay are prepared from 10 mM compound stocks in 100% DMSO, equal amounts of DMSO without any compound are added to positive control and negative control samples.
During the incubation, a mix of the detection reagents is prepared in a buffer such that the enzymatic reaction is terminated due to chelating of Mg-ions and increased ionic strength, containing 50 mM Tris-HCl (pH 7.5), 700 mM NaCl, 20 mM EDTA, and 0.01% (w/v) Tween-20. Europium-streptavidin is pre-incubated with a 200-fold molar excess of a random sequence oligonucleotide to block unspecific binding of oligo, for two hours at ambient temperature in the dark. Afterwards, the blocked Europium-streptavidin is kept on ice until use.
At the end of the enzymatic reaction time, 5 μL detection oligo mix in the detection buffer is added, and assay plates are mixed and kept at ambient temperature for one hour, protected from light. The concentration of the Acceptor nucleotide oligo (e.g., ATTO647N-5′-[…]-3′) and Donor nucleotide oligo (e.g., bio-5′-[…](-bio)[…]-bio-3′) in each assay well is 1 nM, and 3 nM, respectively.
After incubation with oligo mix, 5 μL of pre-blocked Europium-streptavidin reagent is dispensed to each assay well, assay plates are again mixed and kept at ambient temperature for one hour, protected from light.
The generated signal is measured with BMG Pherastar microtiter plate reader with a TRF light unit, using excitation at 340 nm, an integration time of 200 μs, and a delay time of 100 μs, before detection at 620 nm and 665 nm. The ratio of donor- and acceptor-fluorescence is used as a measure of the generated transcript product (i.e. enzymatic activity).

Chain of POLRMT (O00411 42-1230): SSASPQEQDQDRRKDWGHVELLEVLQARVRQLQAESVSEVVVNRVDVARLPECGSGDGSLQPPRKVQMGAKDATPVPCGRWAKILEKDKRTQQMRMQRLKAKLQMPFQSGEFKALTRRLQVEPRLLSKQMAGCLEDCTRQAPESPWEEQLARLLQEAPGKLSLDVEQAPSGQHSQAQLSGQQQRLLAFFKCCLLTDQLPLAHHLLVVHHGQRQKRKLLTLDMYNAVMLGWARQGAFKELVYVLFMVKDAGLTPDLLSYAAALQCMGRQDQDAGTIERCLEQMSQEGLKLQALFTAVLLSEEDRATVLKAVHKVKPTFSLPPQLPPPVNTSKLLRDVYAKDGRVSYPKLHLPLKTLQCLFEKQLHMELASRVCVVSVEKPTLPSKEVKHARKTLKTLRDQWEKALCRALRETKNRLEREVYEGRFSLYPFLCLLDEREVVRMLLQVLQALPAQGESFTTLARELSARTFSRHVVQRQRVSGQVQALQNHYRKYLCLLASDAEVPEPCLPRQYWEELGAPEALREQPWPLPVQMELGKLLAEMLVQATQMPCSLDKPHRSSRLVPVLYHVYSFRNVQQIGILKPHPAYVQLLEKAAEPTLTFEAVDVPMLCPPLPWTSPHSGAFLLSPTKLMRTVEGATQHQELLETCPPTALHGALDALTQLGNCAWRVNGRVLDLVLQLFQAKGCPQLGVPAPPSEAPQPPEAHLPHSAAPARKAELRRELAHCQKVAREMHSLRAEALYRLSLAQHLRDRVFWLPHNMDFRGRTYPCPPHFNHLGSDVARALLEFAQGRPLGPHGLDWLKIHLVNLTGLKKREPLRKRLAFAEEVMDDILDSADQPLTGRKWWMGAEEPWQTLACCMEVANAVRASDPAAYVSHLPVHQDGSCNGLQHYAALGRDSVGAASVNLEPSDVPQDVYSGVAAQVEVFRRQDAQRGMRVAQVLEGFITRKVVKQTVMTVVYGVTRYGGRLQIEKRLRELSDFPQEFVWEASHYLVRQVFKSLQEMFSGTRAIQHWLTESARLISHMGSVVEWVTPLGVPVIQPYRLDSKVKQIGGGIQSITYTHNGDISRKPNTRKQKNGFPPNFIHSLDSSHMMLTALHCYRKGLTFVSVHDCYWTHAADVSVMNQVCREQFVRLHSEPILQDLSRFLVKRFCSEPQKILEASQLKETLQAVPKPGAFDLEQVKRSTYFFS

SMILES | IC50 [nM]
O=c1cc(-c2ccc(F)cc2Cl)c2ccc(CO)cc2o1 [Example 13, 4-(2-chloro-4-fluorophenyl)-7-(hydroxymethyl)-2H-chromen-2-one] | 10000
Cc1ccccc1-c1cc(=O)oc2cc(CC(C)C(=O)N3CC[C@H](C(=O)O)C3)ccc12 (single isomer, unassigned) [Example 100] | 21000
CN(Cc1ccc2c(-c3ccc(F)cc3Cl)cc(=O)oc2c1)C(=O)N1CCCCC1 [Example 05, N-((4-(2-chloro-4-fluorophenyl)-2-oxo-2H-chromen-7-yl)methyl)-N-methylpiperidine-1-carboxamide] | 4000
Cc1ccccc1-c1cc(=O)oc2cc(C(=O)N3CC(C(N)=O)C3)ccc12 [Example 183, 1-(2-oxo-4-(o-tolyl)-2H-chromene-7-carbonyl) azetidine-3-carboxamide] | 7000
CNCc1ccc2c(-c3ccc(F)cc3Cl)cc(=O)oc2c1 [Example 04, 4-(2-chloro-4-fluorophenyl)-7-((methylamino)methyl)-2H-chromen-2-one] | > 100000
COC[C@H](Nc1ccc2c(-c3ccccc3C)cc(=O)oc2c1)C(=O)N1CCC[C@H](C(=O)O)C1 [Example 103, (S)-1-(O-methyl-N-(2-oxo-4-(o-tolyl)-2H-chromen-7-yl)-seryl)piperidine-3-carboxylic acid] | 5000
CCOC(=O)[C@@H](C)Nc1ccc2c(-c3ccc(F)cc3Cl)cc(=O)oc2c1 [Example 26, ethyl (4-(2-chloro-4-fluorophenyl)-2-oxo-2H-chromen-7-yl)-D-alaninate] | 400
COC(=O)C1CN(C(=O)c2ccc3c(-c4ccccc4C)cc(=O)oc3c2)C1 [Example 182, methyl 1-(2-oxo-4-(o-tolyl)-2H-chromene-7-carbonyl) azetidine-3-carboxylate] | 12000
Cc1ccccc1-c1cc(=O)oc2cc(CC(C)C(=O)N3CCC[C@H](S(N)(=O)=O)C3)ccc12 (single isomer, unassigned) [Example 97] | 300
Cc1ccccc1-c1cc(=O)oc2cc(CNC(=O)C3CCC(C(=O)O)CC3)ccc12 [Example 157, (1S,4S)-4-(((2-oxo-4-(o-tolyl)-2H-chromen-7-yl)methyl)carbamoyl)cyclohexane-1-carboxylic acid] | 2000
Cc1ccccc1-c1cc(=O)oc2cc(CC(C)C(=O)N3CCC[C@H](S(C)(=O)=O)C3)ccc12 (single isomer, unassigned) [Example 85] | 300
COCC(C#N)Cc1ccc2c(-c3ccccc3C)cc(=O)oc2c1 (stereo not shown) [Example 201, 3-methoxy-2-((2-oxo-4-(o-tolyl)-2H-chromen-7-yl)methyl)propanenitrile] | 2000
C[C@H](Cc1ccc2c(-c3ccc(F)cc3Cl)cc(=O)oc2c1)C(=O)N1CCCCC1 [Example 19, (R)-4-(2-chloro-4-fluorophenyl)-7-(2-methyl-3-oxo-3-(piperidin-1-yl)propyl)-2H-chromen-2-one] | 24000
CC(=O)NC1CCCN(C(=O)c2ccc3c(-c4ccccc4C)cc(=O)oc3c2)C1 (single isomer, unassigned) [Example 175, N-(1-(2-oxo-4-(o-tolyl)-2H-chromene-7-carbonyl)piperidin-3-yl)acetamide] | > 100000
Nc1ccc2c(-c3ccc(F)cc3Cl)cc(=O)oc2c1 [Example 11, 7-amino-4-(2-chloro-4-fluorophenyl)-2H-chromen-2-one] | 24000
CC(=O)N(C)C1CCN(C(=O)c2ccc3c(-c4ccccc4C)cc(=O)oc3c2)CC1 [Example 110, N-methyl-N-(1-(2-oxo-4-(o-tolyl)-2H-chromene-7-carbonyl)piperidin-4-yl)acetamide] | 8000

The next lines start with the values.

IC50 [nM] | SMILES
600 | Cc1ccccc1-c1cc(=O)oc2cc(NCC3(C(=O)O)CC3)ccc12 [Example 216, 1-(((2-oxo-4-(o-tolyl)-2H-chromen-7-yl)amino)methyl)cyclopropane-1-carboxylic acid]
400 | CNC(=O)[C@@H]1C[C@@H]1c1ccc2c(-c3ccccc3C)cc(=O)oc2c1 (relative stereo) [Example 231, (cis)-N-methyl-2-(2-oxo-4-(o-tolyl)-2H-chromen-7-yl)cyclopropane-1-carboxamide]
2000 | Cc1ccccc1-c1cc(=O)oc2cc(CN(C)C(=O)N3CCC[C@@H](C(=O)O)C3)ccc12 [Example 222, (R)-1-(methyl((2-oxo-4-(o-tolyl)-2H-chromen-7-yl)methyl)carbamoyl)piperidine-3-carboxylic acid]
1000 | Cc1ccccc1-c1cc(=O)oc2cc(NCC(C)C(=O)O)ccc12 (single isomer, unassigned) [Example 154-1, 2-methyl-3-((2-oxo-4-(o-tolyl)-2H-chromen-7-yl)amino)propanoic acid]
400 | Cc1ccccc1-c1cc(=O)oc2cc(CC(C)C(=O)N3CC[C@H](C(=O)O)C3)ccc12 (single isomer, unassigned) [Example 99]
90 | Cc1ccccc1-c1cc(=O)oc2cc(N(C)CC3(C(=O)O)CC3)ccc12 [Example 217, 1-((methyl(2-oxo-4-(o-tolyl)-2H-chromen-7-yl)amino)methyl)cyclopropane-1-carboxylic acid]
500 | CNC(=O)C(C)Cc1ccc2c(-c3ccccc3C)cc(=O)oc2c1 (single isomer, unassigned) [Example 66, N,2-dimethyl-3-(2-oxo-4-(o-tolyl)-2H-chromen-7-yl)propanamide]
12000 | Cc1ccccc1-c1cc(=O)oc2cc(C(=O)NCC(N)=O)ccc12 [Example 113, N-(2-amino-2-oxoethyl)-2-oxo-4-(o-tolyl)-2H-chromene-7-carboxamide]
100 | Cc1ccccc1-c1cc(=O)oc2cc(N(C)Cc3nccs3)ccc12 [Example 167, 7-(methyl(thiazol-2-ylmethyl)amino)-4-(o-tolyl)-2H-chromen-2-one]
300 | Cc1ccccc1-c1cc(=O)oc2cc(NC(=O)C(C)C)ccc12 [Example 33, N-(2-oxo-4-(o-tolyl)-2H-chromen-7-yl) isobutyramide]
3000 | COCC(Cc1ccc2c(-c3ccccc3C)cc(=O)oc2c1)C(N)=O (single isomer, unassigned) [Example 208, 3-methoxy-2-((2-oxo-4-(o-tolyl)-2H-chromen-7-yl)methyl)propanamide]
6000 | CNC(=O)C(C)Cc1ccc2c(-c3ccccc3C)cc(=O)oc2c1 (single isomer, unassigned) [Example 67, N,2-dimethyl-3-(2-oxo-4-(o-tolyl)-2H-chromen-7-yl)propanamide]
80 | Cc1ccccc1-c1cc(=O)oc2cc(CC(C)C(=O)N3CCCCC3)ccc12 (single isomer, unassigned) [Example 62, 7-(2-methyl-3-oxo-3-(piperidin-1-yl)propyl)-4-(o-tolyl)-2H-chromen-2-one]
2000 | CNC(=O)[C@@H]1C[C@H]1c1ccc2c(-c3ccccc3C)cc(=O)oc2c1 (relative stereo) [Example 232, (trans)-N-methyl-2-(2-oxo-4-(o-tolyl)-2H-chromen-7-yl)cyclopropane-1-carboxamide]
20 | Cc1ccccc1-c1cc(=O)oc2cc(N(C)CC(=O)OC(C)C)ccc12 [Example 141, isopropyl N-methyl-N-(2-oxo-4-(o-tolyl)-2H-chromen-7-yl)glycinate]
200 | Cc1ccccc1-c1cc(=O)oc2cc(N(C)[C@H](C)CC(=O)O)ccc12 [Example 230, (R)-3-(methyl(2-oxo-4-(o-tolyl)-2H-chromen-7-yl)amino)butanoic acid]
2000 | Cc1ccccc1-c1cc(=O)oc2cc(C(C)CC(=O)N3CCCCC3)ccc12 (stereo not shown) [Example 59, 7-(4-oxo-4-(piperidin-1-yl)butan-2-yl)-4-(o-tolyl)-2H-chromen-2-one]
400 | Cc1ccccc1-c1cc(=O)oc2cc([C@H]3C[C@H]3C(=O)O)ccc12 (racemic) [Example 226, (cis)-2-(2-oxo-4-(o-tolyl)-2H-chromen-7-yl)cyclopropane-1-carboxylic acid]
6000 | Cc1ccccc1-c1cc(=O)oc2cc(NCC(=O)O)ccc12 [Example 71, (2-oxo-4-(o-tolyl)-2H-chromen-7-yl)glycine]
64000 | Cc1ccccc1-c1cc(=O)oc2cc(C(=O)N(C)C3CCOCC3)ccc12 [Example 111, N-methyl-2-oxo-N-(tetrahydro-2H-pyran-4-yl)-4-(o-tolyl)-2H-chromene-7-carboxamide]
50 | CNC(=O)CN(C)c1ccc2c(-c3ccccc3C)cc(=O)oc2c1 [Example 177, N-methyl-2-(methyl(2-oxo-4-(o-tolyl)-2H-chromen-7-yl)amino)acetamide]
